In brackets after ≈: the same amount, converted by molar mass.
Key:
Escherichia coli JR225 = assay: Minimum inhibitory concentration, standard serial dilution method on Mueller-Hinton agar; format: cell-based; details: JR225, 17 h, read-out: Minimum Inhibitory concentration
Source text: (§1) Minimum inhibitory concentrations (mcg/ml) of the parent 3-demethoxyistamycin B were also estimated in the same manner for the comparison purpose and also are shown in Table 1.

[1] = system: Escherichia coli JR66/W677; assay: as above; format: cell-based; details: 37° C., 17 hours
Source text: as §1

[2] = system: Escherichia coli K-12 C600 R135; assay: as above; format: cell-based; details: 17 hours; for Minimum Inhibitory concentration: 37° C.
Source text: as §1

[3] = system: Escherichia coli K-12 LA290 R55; assay: as above; format: cell-based; details: K12LA290R55, 17 h, read-out: Minimum Inhibitory concentration
Source text: as §1

[4] = system: Escherichia coli K-12 ML1629; assay: as above; format: cell-based; details: K12ML1629, 37° C., 17 hours
Source text: as §1

Escherichia coli K-12 R5 = assay: as above; format: cell-based; details: K12R5, 17 h, read-out: Minimum Inhibitory concentration
Source text: as §1

Escherichia coli K-12 = assay: as above; format: cell-based; details: K12, 37° C., 17 hours
Source text: as §1

Providencia Pv 16 = assay: as above; format: cell-based; details: 17 hours; for Minimum Inhibitory concentration: 37° C.
Source text: as §1

[5] = system: Pseudomonas aeruginosa A3; assay: as above; format: cell-based; details: 37° C., 17 hours
Source text: as §1

[6] = system: Pseudomonas aeruginosa GN315; assay: as above; format: cell-based; details: 37° C., 17 hours
Source text: as §1

[7] = system: Pseudomonas aeruginosa H9; assay: as above; format: cell-based; details: 37° C., 17 hours
Source text: as §1

[8] = system: Pseudomonas aeruginosa TI-13; assay: as above; format: cell-based; details: 17 hours; for Minimum Inhibitory concentration: 37° C.
Source text: as §1

Serratia marcescens = assay: as above; format: cell-based; details: 37° C., 17 hours
Source text: as §1

[9] = system: Staphylococcus aureus 209P; assay: as above; format: cell-based; details: for Minimum Inhibitory concentration: Staphylococcus aureus 209P, Mueller-Hinton agar, 37° C., 17 hours
Source text: as §1

[10] = system: Staphylococcus aureus Ap01; assay: as above; format: cell-based; details: 37° C., 17 hours
Source text: as §1

[11] = Acute toxicity, intravenous, in mice; details: mouse, in vivo, mice (ICR, adult female), single administration in saline
Description: Acute toxicity of the various N-methanesulfonic acid derivatives of 3-demethoxyistamycin B of the invention has been determined by the following procedure:
A test compound or substance was dissolved in 0.25 ml of a physiological saline solution and the solution of the test compound or substance so prepared was intravenously administered into a series of mouse groups each consisting of six mice (ICR strain, adult female, body weight 20 g±0.5 g) as the test animal, so that the test compound or substance was given to each mouse. Acute toxicity of 3-demethoxyistamycin B was also estimated in the same manner as above for the comparison purpose.

Row | Compound | Minimum Inhibitory concentration [2] [µg/mL] | Minimum Inhibitory concentration [6] [µg/mL] | Minimum Inhibitory concentration [7] [µg/mL] | Minimum Inhibitory concentration [8] [µg/mL] | Minimum Inhibitory concentration [1] [µg/mL] | Minimum Inhibitory concentration (Serratia marcescens) [µg/mL] | Minimum Inhibitory concentration [9] [µg/mL] | Minimum Inhibitory concentration [10] [µg/mL] | Minimum Inhibitory concentration (Providencia Pv 16) [µg/mL] | also measured
1 | CNCC1CCC(N)C(OC2C(N)CCC(N(C)C(=O)CN)C2O)O1 (stereo not drawn) [3-Demethoxyistamycin B] |  |  |  |  |  |  |  |  |  | MIC (Escherichia coli JR225): 0.78 µg/mL (≈ 2.17 µM); MIC [1]: 0.78 µg/mL (≈ 2.17 µM); MIC ([2]; K12C600R135, 37° C.): 0.78 µg/mL (≈ 2.17 µM); MIC [3]: 1.56 µg/mL (≈ 4.34 µM); MIC [4]: 0.78 µg/mL (≈ 2.17 µM); MIC (Escherichia coli K-12 R5): 1.56 µg/mL (≈ 4.34 µM); MIC (Escherichia coli K-12): 0.78 µg/mL (≈ 2.17 µM); MIC (Providencia Pv 16; PV16, 37° C.): 0.78 µg/mL (≈ 2.17 µM); MIC [5]: 0.39 µg/mL (≈ 1.08 µM); MIC [6]: 6.25 µg/mL (≈ 17.4 µM); MIC [7]: 12.5 µg/mL (≈ 34.8 µM); MIC ([8]; TI13, 37° C.): 6.25 µg/mL (≈ 17.4 µM); MIC (Serratia marcescens): 0.78 µg/mL (≈ 2.17 µM); MIC ([9]; Staphylococcus aureus, 209P, 17 h, read-out: Minimum Inhibitory concentration): < 0.2 µg/mL; MIC [10]: 0.39 µg/mL (≈ 1.08 µM); LD50 [11]: 100 to 200 mg/kg
2 | 3-demethoxyistamycin B-mono-N-methanesulfonic acid sodium salt [Compound (1)] | 6.25 | 100 | 50 | 25 |  |  |  |  |  | 
3 | 3-demethoxyistamycin B-tri-N-methanesulfonic acid sodium salt [Compound (3)] |  | 50 | 50 | 25 | 3.13 | 6.25 | 1.56 | 0.78 |  | 
4 | 3-demethoxyistamycin B-di-N-methanesulfonicacid sodium salt [Compound (2)] | 6.25 | 100 | 50 | 25 | 3.13 | 3.13 | 0.78 | 0.78 | 1.56 | Minimum Inhibitory concentration [5]: 0.78 µg/mL
5 | 3-demethoxyistamycin B-tetra-N-methanesulfonic acid sodium salt [Compound (4)] |  |  | 50 |  | 6.25 | 3.13 |  | 1.56 | 1.56 | 

Reference: patent US4567165A, “N-Methanesulfonic acid derivatives of 3-demethoxyistamycin B” (Zaidan Hojin Biseibutsu Kagaku Kenkyu Kai, priority 1984, dated 1986)
